Data set [1] in a line: Vmax value was calculated in terms of nmoles of product per mg of protein per minute.
Data set [2] in a line: Vmax/Km x100 value of the compound.
The target in data set [3] is T1, Phenylethanolamine N-methyltransferase (Bos taurus, UniProt P10938).
T1 sequence (P10938 whole entry): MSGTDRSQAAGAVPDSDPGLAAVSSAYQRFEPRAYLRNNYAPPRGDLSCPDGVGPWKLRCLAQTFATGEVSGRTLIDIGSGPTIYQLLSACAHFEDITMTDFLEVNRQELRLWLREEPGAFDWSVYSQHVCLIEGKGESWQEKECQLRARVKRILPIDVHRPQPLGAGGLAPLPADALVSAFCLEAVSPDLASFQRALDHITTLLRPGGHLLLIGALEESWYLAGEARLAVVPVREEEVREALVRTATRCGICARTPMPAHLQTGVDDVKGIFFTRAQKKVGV
In words: (§1) Inhibitory activity against Norepinephrine N-methyl-transferase of bovine adrenal glands. The format is tissue-based, Adrenal gland.

Compound in data set [4]: NCC(O)C1CCCCCCC1
The data set is described as §1. The format is tissue-based. The following applies: Adrenal gland.

Compound in data set [5]: NC[C@@H](O)C1CCCCC1
Described as §1. Format: tissue-based. The following applies: Adrenal gland.

Compound in data set [6]: NC[C@@H](O)C1CCCCCCC1
The data set is described as §1. The format is tissue-based. Conditions: Adrenal gland.

Compound in data set [7]: NC[C@@H](O)c1ccccc1
The data set is described as §1. The format is tissue-based. Conditions: Adrenal gland.

Compound in data set [8]: NC[C@H](O)C1CCCCC1
The data set is described as §1. Format: tissue-based. Conditions: Adrenal gland.

Compound in data set [9]: NC[C@H](O)C1CCCCCCC1
The data set is described as §1. Format: tissue-based. The following applies: Adrenal gland.

Compound in data set [10]: NC[C@H](O)c1ccccc1
Described as §1. Conditions: Adrenal gland. Format: tissue-based.

Several values for one entry are separate records, joined by “and”; a condition that tells them apart may be missing. Equal entries are not always repeated.

Broadly, the Vmax is the rate approached at saturating substrate. For `NC[C@@H](O)C1CCCCC1`, in [1], the Vmax was 0.64 nmol/min/mg. Moreover, the Vmax/Km x100 in data set [2] turned out to be 1.88.

Usually Ki stands for a measure of affinity in units of concentration, obtained from inhibition or displacement. `NCCC1CCCCC1` returned a Ki in data set [3] of 41 µM.

Take `C[C@H](N)Cc1ccccc1` (stereo in doubt; 1b) [DEXTROAMPHETAMINE]: the Ki in data set [3] is 422 µM.

Take `CC(N)CC1CCCCC1` (configuration not stated): in [3], the affinity, expressed as Ki, was 109 µM.

For `CC(N)CC1CCCCCCC1` (configuration not stated), in [3], the affinity, expressed as Ki, was 86 µM.

`NCCc1ccccc1` [PHENETHYLAMINE] registered a Ki in [3] of 467 µM.

For `NC[C@@H](O)c1ccccc1` (stereo in doubt; 9a), the Vmax in [1] is 1.75 nmol/min/mg. In addition, the Vmax/Km x100 in [2] was 1.62.

`C[C@H](N)CC1CCCCC1`: in data set [3], affinity was put at a Ki of 22 µM. That is a double-digit micromolar value.

For the molecule `CC(N)Cc1ccccc1` (configuration not stated) [AMPHETAMINE], the Ki in data set [3] was 740 µM.

In turn, `C[C@@H](N)CC1CCCCCCC1` registered a Ki in data set [3] of 157 µM.

For the molecule `NC[C@H](O)c1ccccc1`, the Vmax in data set [1] was 4.85 nmol/min/mg. Also, the Vmax/Km x100 in [2] was 1.69.

As to `NC[C@H](O)C1CCCCC1`, the Vmax in [1] is 1.85 nmol/min/mg. Further, in data set [2], the Vmax/Km x100 was 2.43.

For `NC[C@@H](O)C1CCCCCCC1`, the Vmax in data set [1] was 0.27 nmol/min/mg. In addition, the Vmax/Km x100 in [2] came to 0.67.

In [3], `C[C@@H](N)C1CCCCC1` registered a Ki of 412 µM.

Turning to `CC(N)c1ccccc1` (configuration not stated), the affinity in data set [3] corresponds to a Ki of 460 µM. This Ki and that of the molecule before are within 1.5-fold of each other.

Take `NC[C@H](O)C1CCCCCCC1`: the Vmax in [1] was 0.38 nmol/min/mg. In addition, in [2], the Vmax/Km x100 came out at 0.88.

`C[C@H](N)Cc1ccccc1` (stereo in doubt; 1c) [DEXTROAMPHETAMINE]: the Ki in [3] stood at 1380 µM. That is a millimolar value.

With `NCC(O)C1CCCCC1` (configuration not stated), the Vmax in data set [1] was 0.99 nmol/min/mg. The Vmax/Km x100 in data set [2] is 2.47.

With `C[C@H](N)c1ccccc1`, the Ki in data set [3] turned out to be 149 µM.

In [3], `C[C@@H](N)c1ccccc1` gave a Ki of 1680 µM.

Take `C[C@@H](N)CC1CCCCC1`: the Ki in data set [3] is 290 µM.

The molecule `CC(N)CC1CC=CCC1` (configuration not stated) returned a Ki in [3] of 110 µM.

Turning to `NC[C@@H](O)c1ccccc1` (stereo in doubt; 9b), in data set [1], the Vmax is 0.92 nmol/min/mg. Moreover, in [2], the Vmax/Km x100 is 0.93.

`C[C@H](N)CC1CCCCCCC1` yielded a Ki in data set [3] of 34 µM.

For the molecule `NCC(O)C1CCCCCCC1` (configuration not stated), in [1], the Vmax was 0.27 nmol/min/mg. In data set [2], the Vmax/Km x100 stood at 0.62.

The molecule `C[C@H](N)C1CCCCC1` yielded a Ki in data set [3] of 44 µM.

B1: Phenylethanolamine N-methyltransferase (Bos taurus), P10938 (protein)
chain: T1 sequence (P10938 whole entry)
Broadly, the Km is the concentration of substrate that gives half-maximal velocity. Consider B1, for which the Km is 43 µM in [4]; 34 µM in [5]; 40 µM in data set [6]; 96 µM and 108 µM in data set [7]; 76 µM in data set [8]; 43 µM in data set [9]. The Km in data set [10] came out at 286 µM.
